The experiment concerns Encephalomyocarditis. Description: in vivo antiviral study, mice challenged subcutaneously with encephalomyocarditis virus. The settings on record: observation 9 days. How it is done: Examples 25 to 36 illustrate in vivo antiviral studies with compounds, also referred to as active ingredients, of this invention. In each of the examples the compounds were antivirally active. […] The dosage levels of the compounds used in the examples were within the range of 10 to 250 mg. per kg. of animal body weight for each time the compound was administered.
Table A lists the active ingredient which was administered in each of the examples. Although it is believed that the headings in the examples are self-explanatory, some of the headings are explained as follows. The "challenge," that is, the inoculation with a virus used is generally fatal to all the untreated, that is, control animals in the experiment. "Time of death" refers to the average time of death for the untreated animals. The "Treatment" was prophylactic or therapeutic or both. The term "volume" refers to the volume of composition administered per dose which contained the active ingredient dissolved in sterile water which also contained 0.15% of hydroxyethylcellulose.

Setting [1] is: prophylactic, 250 mg/kg oral, 22 hrs. pre-challenge, challenge 6 LD50.
The mark [2] stands for this setting: Proph. & Therap., 50 mg/kg subcutaneous, 28,22,2 hrs. pre- and 2 hrs. post-challenge, challenge 10 LD50.

The structures appear in SMILES notation. Counter-ions that a name gives are not always drawn.

Turning to `O=C(CN1CCCCC1)c1ccc2oc3ccc(C(=O)CN4CCCCC4)cc3c2c1` [Example 31, 2,8-bis-(piperidinoacetyl)dibenzofuran], the antiviral activity result (Proph. & Therap., 250 mg/kg subcutaneous, 28,22,2 hrs. pre- and 2 hrs. post-challenge, challenge 32 LD50) is recorded as “Yes”; the antiviral activity result (prophylactic, 250 mg/kg oral, 22 hrs. pre-challenge, challenge 32 LD50) is “Yes”. `CCN(CC)CC(=O)c1ccc2oc3ccc(C(=O)CN(CC)CC)cc3c2c1` [Example 33, 2,8-bis-[2-(diethylamino)acetyl]dibenzofuran dihydrochloride hemihydrate]: the antiviral activity entry by setting is: (Proph. & Therap., 50 mg/kg subcutaneous, 28,22,2 hrs. pre- and 2 hrs. post-challenge, challenge 12 LD50) “Yes”; (prophylactic, 250 mg/kg oral, 22 hrs. pre-challenge, challenge 12 LD50) “Yes”.

Turning to `CC1CCN(CCCC(=O)c2ccc3oc4ccc(C(=O)CCCN5CCC(C)CC5)cc4c3c2)CC1` [Example 27, 2,8-bis-[4-(4-methylpiperidino)butyryl]dibenzofuran], the antiviral activity result runs as follows: (Proph. & Therap., 10 mg/kg subcutaneous, 28,22,2 hrs. pre- and 2 hrs. post-challenge, challenge 6 LD50) “Yes”; under setting [1], “Yes”. As for `O=C(CCCN1CCC(Cc2ccccc2)CC1)c1ccc2oc3ccc(C(=O)CCCN4CCC(Cc5ccccc5)CC4)cc3c2c1` [Example 29, 2,8-bis-[4-(4-benzylpiperidino)butyryl]dibenzofuran], the antiviral activity result (Proph. & Therap., 10 mg/kg subcutaneous, 28,22,2 hrs. pre- and 2 hrs. post-challenge, challenge 18 LD50) is “Yes”. Consider `O=C(CCCN1CCCCC1)c1ccc2oc3ccc(C(=O)CCCN4CCCCC4)cc3c2c1` [Example 25, 2,8-bis-(4-piperidinobutyryl)dibenzofuran], for which the antiviral activity result by setting is: (prophylactic, 50 mg/kg subcutaneous, 28,22,2 hrs. pre-challenge, challenge 6 LD50) “Yes”; under setting [1], “Yes”. In the case of `CN(C)CC(=O)c1ccc2oc3ccc(C(=O)CN(C)C)cc3c2c1.Cl.Cl.O.O` [Example 35, 2,8-bis-[2-(dimethylamino)acetyl]dibenzofuran dihydrochloride dihydrate], the antiviral activity result was “Yes” (Proph. & Therap., 50 mg/kg oral, 28,22,2 hrs. pre- and 2 hrs. post-challenge, challenge 10 LD50); “Yes” under setting [2]. In the case of `O=C(CCCN1CCOCC1)c1ccc2oc3ccc(C(=O)CCCN4CCOCC4)cc3c2c1` [Example 30, 2,8-bis-(4-morpholinobutyryl)dibenzofuran], under setting [2], the antiviral activity entry was “Yes”.
